Where two headings read alike, the source gives them in different places.
Experiments:
[1] = cited from earlier work
[2] = system: premature ejaculation (PE); assay: Case reports: intravaginal ejaculation latency time (IELT) in PE patients; assay type: in vivo, human
[3] = Case reports: tolerability and side effects in PE patients; assay type: in vivo, human
[4] = system: premature ejaculation (PE); conditions: cited from earlier work
[5] = cited from earlier work; for peak plasma concentration: healthy volunteers
erectile dysfunction = assay: Case reports: erection / ability to achieve intercourse; assay type: in vivo, human; conditions: Case Report 6; 12 mg yohimbine daily alone, in two doses
Excerpt: A patient complained about erectile dysfunction and PE.
A patient complained about primary PE and about psychogenic erectile dysfunction.

male rats = male rats (Shekar et al. 2017); cited from earlier work
aged male rats = conditions: cited from earlier work
seminal vesicle = conditions: electrical nerve stimulation (Hsieh et al. 1999); cited from earlier work
[6] = metabolite after oral clomipramine

COC(=O)[C@@H]1[C@H]2C[C@H]3c4[nH]c5cc(O)ccc5c4CCN3C[C@@H]2CC[C@@H]1O [11-hydroxy-yohimbine]
elimination half-life of active metabolite ([1]; single-dose yohimbine studies): 6 h

CN(C)CCCN1c2ccccc2CCc2ccc(Cl)cc21 [clomipramine, 3-(3-chloro-10,11-dihydro-5H-dibenzo[b,f]azepin-5-yl)-N,N-dimethylpropan-1-amine]
IELT after treatment ([2]; Case Report 5, 30 mg clomipramine alone 6 hours before sexual intercourse, before: 1 minute): 6 min | side effects reported ([3]; Case Report 5, 30 mg clomipramine alone 6 hours before sexual intercourse): dizziness, dyspepsia and constipation | time to climax in premature ejaculators ([4]; 50 mg clomipramine): more than 8 minutes | latency to ejaculation ([4]; 25 milligrams clomipramine 12 to 24 hours before sexual activity, from about 1.5 to 2 minutes): about 8 minutes | peak plasma concentration ([5]; single oral dose 50 mg): 28.8 ± 11.2 ng/mL | peak plasma concentration ([5]; single oral dose 100 mg): 70 to 140 ng/mL

CNCCCN1c2ccccc2CCc2ccc(Cl)cc21 [desmethylclomipramine]
peak plasma concentration of metabolite ([5]; after single oral dose of 50 mg clomipramine): 5.0 ± 1.4 ng/mL | half-life [5, 6]: 36 h | half-life, upper limit in brackets [5, 6]: up to 9 hours

Fc1ccc([C@@H]2CCNC[C@H]2COc2ccc3c(c2)OCO3)cc1 [paroxetine]
outcome of earlier PE treatment ([2]; Case Report 1, 20 to 40 mg daily for 6 months): unsuccessfully

CN[C@H]1CC[C@@H](c2ccc(Cl)c(Cl)c2)c2ccccc21 [sertraline]
outcome of earlier PE treatment ([2]; Case Report 2, 50-100 mg for 16 weeks): unsuccessfully

COC(=O)[C@@H]1[C@H]2C[C@H]3c4[nH]c5ccccc5c4CCN3C[C@@H]2CC[C@@H]1O [yohimbine, 17α-hydroxy-yohimban-16α-carboxylic acid methyl ester]
time of intercourse ([2]; Case Report 6, 12 mg yohimbine daily alone): no amelioration | side effects reported ([3]; Case Report 6, 12 mg yohimbine daily alone, from the second day of treatment): diarrhoea | erections (erectile dysfunction): improved erections | elimination half-life ([1]; single-dose studies, oral or intravenous): < 1 h | antagonism of clomipramine-induced sexual dysfunction (male rats): failed to antagonize | effect on erectile dysfunction (aged male rats): improves erectile dysfunction | effect on seminal vesicle contractile response (seminal vesicle): can suppress

Reference: patent US12186325B2, “Treatment and prevention of premature ejaculation (PE)” (SEROJAC PME Handels GmbH, priority 2018, dated 2025)
